Assay results taken from US9644011B2 (priority 2005, dated 2017).

Tests used:
[1] = tested on: mouse sciatic nerve; conditions: cited from earlier work
[2] = tested on: muscle strength of mice; conditions: mouse, in vivo

Structure (SMILES) | concentration necessary for similar inhibitory effect on mouse sciatic nerve [1] | time to decrease of 50% of the relative strength [2] [min]
CCN(CC)CC(=O)Nc1c(C)cccc1C [lidocaine] | Millimolar concentrations | –
CCN(CC)CCOC(=O)c1ccc(N)cc1 [procaine] | – | ~10
